Measured values taken from patent US7605168B2 (Plexxikon, Inc., priority 2004, dated 2009).

Experiments:
[1] = target: T1, PDE4B: catalytic domain of human PDE4B from S152-S528 (Homo sapiens, UniProt Q07343); assay: PDE4 IC50 determination by Scintillation Proximity Assay (SPA), PDE4B catalytic domain; format: biochemical; settings: [3H]cAMP SPA, 30 min at 30° C.
T1 construct: The catalytic domain of human PDE4B from S152-S528; His6 (N, cleaved yes); thrombin cleavage site (N, cleaved yes); made in house; host or cells: E. coli BL21 (DE3) RIL
T1 sequence (Q07343 324-700): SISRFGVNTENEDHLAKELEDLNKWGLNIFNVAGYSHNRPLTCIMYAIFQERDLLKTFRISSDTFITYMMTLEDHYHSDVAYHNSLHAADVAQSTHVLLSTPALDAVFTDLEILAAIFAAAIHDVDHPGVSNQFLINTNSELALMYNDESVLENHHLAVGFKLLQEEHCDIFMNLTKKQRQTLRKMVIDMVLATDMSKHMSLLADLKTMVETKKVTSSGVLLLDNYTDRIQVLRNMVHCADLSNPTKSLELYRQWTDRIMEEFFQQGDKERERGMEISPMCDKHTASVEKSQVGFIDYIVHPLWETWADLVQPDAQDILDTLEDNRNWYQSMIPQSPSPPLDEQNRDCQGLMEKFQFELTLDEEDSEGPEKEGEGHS
Procedure, shortened: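 Human PDE4B catalytic domain (80 ng/ml) hydrolysed [3H]cAMP in 50 mM Tris pH 7.5, 8.3 mM MgCl, 1.7 mM EGTA, 0.01% BSA for 30 min at 30 °C. Reaction was stopped with yttrium silicate SPA beads in 18 mM ZnSO4, and bound [3H]AMP was counted by scintillation. IC50 came from non-linear regression.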

[2] = target: T2, PDE4B2: full-length human PDE4B2 isozyme (Homo sapiens, UniProt Q07343); assay: PDE4 IC50 determination by Scintillation Proximity Assay (SPA), full-length PDE4B2; format: biochemical; settings: cell lysate, [3H]cAMP SPA
T2 construct: made in house; host or cells: baculovirus infected insect cells (pFastBacHT)
T2 sequence (Q07343 with tags, fused parts or gaps isoform Q07343-2): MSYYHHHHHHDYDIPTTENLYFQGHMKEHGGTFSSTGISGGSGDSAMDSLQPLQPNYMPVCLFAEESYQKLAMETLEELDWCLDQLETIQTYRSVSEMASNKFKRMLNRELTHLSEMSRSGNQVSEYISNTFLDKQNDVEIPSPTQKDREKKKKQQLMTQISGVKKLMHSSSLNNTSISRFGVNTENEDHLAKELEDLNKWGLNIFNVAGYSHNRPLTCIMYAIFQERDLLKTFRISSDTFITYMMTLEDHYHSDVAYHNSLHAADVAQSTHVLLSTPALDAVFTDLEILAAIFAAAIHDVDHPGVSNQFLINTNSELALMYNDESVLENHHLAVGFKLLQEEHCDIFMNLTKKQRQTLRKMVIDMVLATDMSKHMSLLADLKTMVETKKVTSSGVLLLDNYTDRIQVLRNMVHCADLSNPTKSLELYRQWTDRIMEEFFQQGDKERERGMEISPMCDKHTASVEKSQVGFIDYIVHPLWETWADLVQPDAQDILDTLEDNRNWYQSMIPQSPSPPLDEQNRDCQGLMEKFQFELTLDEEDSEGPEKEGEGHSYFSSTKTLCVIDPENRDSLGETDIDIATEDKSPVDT
Procedure, shortened: (§1)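 Unpurified enzyme from cell lysates (PDE4B2 2.5 μl, PDE4D5 0.083 μl of 50% glycerol stock/ml) hydrolysing [3H]cAMP in 50 mM Tris pH 7.5, 8.3 mM MgCl, 1.7 mM EGTA, 0.01% BSA, 30 min at 30 °C. Stopped with yttrium silicate SPA beads in 18 mM ZnSO4; bead-bound [3H]AMP counted. IC50 by non-linear regression.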

[3] = target: T3, PDE4D: catalytic domain S316-V692 (Homo sapiens, UniProt Q08499); assay: PDE4 IC50 determination by Scintillation Proximity Assay (SPA), PDE4D catalytic domain; format: biochemical; settings: [3H]cAMP SPA, 30 min at 30° C.
T3 construct: pET15S PDE4D S316-V692-X; His6 (N, cleaved yes); thrombin cleavage site (N, cleaved yes); made in house; host or cells: E. coli BL21 (DE3) RIL
T3 sequence (Q08499 380-756): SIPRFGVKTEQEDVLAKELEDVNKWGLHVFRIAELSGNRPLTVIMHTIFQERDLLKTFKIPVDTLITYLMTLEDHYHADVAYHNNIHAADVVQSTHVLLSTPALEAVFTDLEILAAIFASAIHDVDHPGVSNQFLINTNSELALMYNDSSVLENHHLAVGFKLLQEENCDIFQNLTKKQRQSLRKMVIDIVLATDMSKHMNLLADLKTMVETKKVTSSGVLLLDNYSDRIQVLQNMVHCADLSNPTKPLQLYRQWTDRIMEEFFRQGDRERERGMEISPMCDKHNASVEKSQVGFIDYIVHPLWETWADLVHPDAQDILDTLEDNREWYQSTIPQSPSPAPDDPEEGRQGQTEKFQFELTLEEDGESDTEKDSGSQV
Description: IC50s were determined by Scintillation Proximity Assay (SPA). The principle of the assay is based on the fact that cAMP, the PDE4 substrate, binds weakly to Yittrium Silicate SPA beads, whereas AMP, the product of PDE4 hydrolysis binds strongly. Thus, the extent of PDE4 hydrolysis of a sample of [^3H]cAMP can be measured because only the [^3H]AMP produced by PDE4 hydrolysis will bind to the SPA beads and produce a scintillation signal.
[…] Enzyme was stored in 50% glycerol at −20°. See Example 144.
Compounds tested (see Tables 5 for compounds and results) were 3-fold serially diluted 11 times in DMSO from a starting concentration of 4 mM or 40 μM, depending on compound potency. 1 μl of each dilution was transferred into duplicate wells of a white polystyrene 384-well assay plate (Corning #3710). In addition to the compound dilutions, each assay plate contained control wells with 1 μl of DMSO (to define 0% enzyme inhibition) or 1 μl of 200 μM roflumilast (to define 100% enzyme inhibition). Using a Beckman FX robot, 10 μl of [^3H] cAMP (Amersham TRK559) at […] in assay buffer (50 mM Tris, pH 7.5; 8.3 mM MgCl; 1.7 mM EGTA; 0.01% BSA) was transferred to each assay well. Next, 10 μl of PDE4 enzyme in assay buffer was added and the plates were shaken for 30 s. at 1000 rpm to start the cAMP hydrolysis reaction. The concentrations of enzyme used were: PDE4B, 80 ng/ml; PDE4D, 4 ng/ml; PDE4B2, 2.5 μl of 50% glycerol stock/ml; PDE4D5 0.083 μl of 50% glycerol stock/ml. Assay plates were covered and incubated for 30 min. at 30° C. Reactions were stopped by robotic addition of 10 μl of 5 mg/ml SPA beads (Amersham RPNQ0013) in 18 mM ZnSO4. The assay plates were covered with clear plastic film, centrifuged for 1 min. at 1000 RPM to settle the SPA beads, and counted using a Wallac TriLux scintillation counter. IC50's were calculated from the raw assay data by non-linear regression curve fitting using the Assay Explorer software package from MDL.

[4] = target: T4, PDE4D5: full-length human PDE4D5 isozyme (Homo sapiens, UniProt Q08499); assay: PDE4 IC50 determination by Scintillation Proximity Assay (SPA), full-length PDE4D5; format: biochemical; settings: cell lysate, [3H]cAMP SPA
T4 construct: made in house; host or cells: baculovirus infected insect cells (pFastBacHT)
T4 sequence (Q08499 with tags, fused parts or gaps isoform Q08499-6): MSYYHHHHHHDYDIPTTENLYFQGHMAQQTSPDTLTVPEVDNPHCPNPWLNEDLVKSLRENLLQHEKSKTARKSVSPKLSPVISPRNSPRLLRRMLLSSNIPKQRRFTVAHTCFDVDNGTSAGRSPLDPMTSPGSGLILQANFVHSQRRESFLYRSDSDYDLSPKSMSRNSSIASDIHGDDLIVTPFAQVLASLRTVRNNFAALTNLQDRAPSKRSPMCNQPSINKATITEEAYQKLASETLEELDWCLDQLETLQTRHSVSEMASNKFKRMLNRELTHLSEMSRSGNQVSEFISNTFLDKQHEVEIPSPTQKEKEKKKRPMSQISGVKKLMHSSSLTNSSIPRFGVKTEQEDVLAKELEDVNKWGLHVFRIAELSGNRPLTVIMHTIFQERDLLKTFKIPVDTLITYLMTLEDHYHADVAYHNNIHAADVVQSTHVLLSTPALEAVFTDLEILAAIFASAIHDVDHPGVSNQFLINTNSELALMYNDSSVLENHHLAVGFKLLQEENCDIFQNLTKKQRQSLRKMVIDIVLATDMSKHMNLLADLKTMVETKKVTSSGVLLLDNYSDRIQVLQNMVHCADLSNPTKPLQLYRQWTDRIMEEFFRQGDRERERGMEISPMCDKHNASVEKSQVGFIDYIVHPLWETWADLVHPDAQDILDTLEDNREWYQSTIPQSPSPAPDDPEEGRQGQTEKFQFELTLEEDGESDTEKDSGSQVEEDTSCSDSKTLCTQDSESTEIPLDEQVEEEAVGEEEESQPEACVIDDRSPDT
Procedure, shortened: as §1

[5] = test system: TNF-α release from whole blood cultures stimulated with LPS; assay: IC50 by TNF alpha production upon stimulation of whole blood cultures with LPS; format: cell-based; settings: human whole blood (buffy coat) culture, 100 ng/ml LPS, 4 hours; read-out: h TNFα IC50
Procedure, shortened: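 Human buffy coat, diluted with 7 volumes of RPMI/2.5% heat-inactivated FBS, was preincubated with compound (8-point 1:3 series) for 1 h at 37 °C. It was then stimulated with 100 ng/ml LPS (final) for 4 h. Supernatant TNF-α was measured by sandwich ELISA at 450 nm, and IC50 was set between DMSO (0%) and PDE4-inhibitor (100%) controls.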

Row | IC50 [1] [µM] | IC50 [2] [µM] | IC50 [3] [µM] | IC50 [4] [µM] | IC50 [5] [µM] | Structure (SMILES)
1 | < 10 | < 10 | ≤ 10 | < 10 | ≤ 10 | COc1ccc(-c2cn(C(=O)c3cccnc3)c3ncccc23)cc1OC [Compound 56, [3-(3,4-Dimethoxy-phenyl)-pyrrolo[2,3-b]pyridin-1-yl]-(3-pyridylyl)-methanone-amide]
2 | < 10 | < 10 | ≤ 10 | < 10 | ≤ 10 | COc1ccc(-c2cn(C(=O)c3ccc4c(OC(C)=O)cccc4c3)c3ncccc23)cc1OC [Compound 62, Acetic acid 6-[3-(3,4-dimethoxy-phenyl)-pyrrolo[2,3-b]pyridine-1-carbonyl]-naphthalen-1-yl ester-amide]
3 | < 10 | < 10 | ≤ 10 | < 10 | ≤ 10 | COc1ccc(-c2cn(C(=O)c3csc4ccccc34)c3ncccc23)cc1OC [Compound 63, Benzo[b]thiophen-3-yl-[3-(3,4-dimethoxy-phenyl)-pyrrolo[2,3-b]pyridin-1-yl]-methanone]
4 | < 10 | < 10 | ≤ 10 | < 10 | ≤ 10 | COc1ccc(-c2cn(C(=O)c3ccc(F)c4ccccc34)c3ncccc23)cc1OC [Compound 64, [3-(3,4-Dimethoxy-phenyl)-pyrrolo[2,3-b]pyridin-1-yl]-(4-fluoro-naphthalen-1-yl)-methanone]
5 | < 10 | < 10 | ≤ 10 | < 10 | ≤ 10 | COc1ccc(-c2cn(C(=O)c3cccc4c(OC)cccc34)c3ncccc23)cc1OC [Compound 65, [3-(3,4-Dimethoxy-phenyl)-pyrrolo[2,3-b]pyridin-1-yl]-(5-methoxynaphthalen-1-yl)-methanone]
6 | < 10 | < 10 | ≤ 10 | < 10 | ≤ 10 | COc1ccc(-c2cn(C(=O)c3cccc4cccnc34)c3ncccc23)cc1OC [Compound 66]
7 | < 10 | < 10 | ≤ 10 | < 10 | ≤ 10 | COc1ccc(-c2cn(S(=O)(=O)c3ccc(-c4ccncc4C)cc3)c3ncccc23)cc1OC [Compound 69, 3-(3,4-Dimethoxy-phenyl)-1-[4-(3-methyl-pyridin-4-yl)-benzenesulfonyl]-1H-pyrrolo[2,3-b]pyridine]
8 | < 10 | < 10 | ≤ 10 | < 10 | ≤ 10 | COc1ccc(-c2c[nH]c3ncccc23)cc1OC1CCCC1 [Compound 88, 3-(3-Cyclopentyloxy-4-methoxy-phenyl)-1H-pyrrolo[2,3-b]pyridine]
9 | < 10 | < 10 | ≤ 10 | < 10 | ≤ 10 | COc1ccc(-c2cn(S(=O)(=O)c3cccc4cc(C)cnc34)c3ccc(Cl)cc23)cc1OC1CCCC1 [Compound 95, 8-[5-Chloro-3-(3-cyclopentyloxy-4-methoxy-phenyl)-indole-1-sulfonyl]-3-methyl-quinoline]
10 | < 10 | < 10 | ≤ 10 | < 10 | ≤ 10 | COc1ccc(-c2cn(S(=O)(=O)c3cccc4cc(C)cnc34)c3ccc(Cl)cc23)cc1OC [Compound 96, 8-[5-Chloro-3-(3,4-Dimethoxy-phenyl)-indole-1-sulfonyl]-3-methyl-quinoline]
11 | < 10 | < 10 | ≤ 10 | < 10 | ≤ 10 | COc1ccc(-c2cn(S(=O)(=O)c3cccc4cccnc34)c3ccccc23)cc1OC1CCCC1 [Compound 100, 8-[3-(3-Cyclopentyloxy-4-methoxy-phenyl)-indole-1-sulfonyl]-quinoline]
12 | < 10 | < 10 | ≤ 10 | < 10 | ≤ 10 | COc1ccc(-c2cn(S(=O)(=O)c3ccccc3)c3ncccc23)cc1OC1CCCC1 [Compound 101, 1-Benzenesulfonyl-3-(3-cyclopentyloxy-4-methoxy-phenyl)-1H-pyrrolo[2,3-b]pyridine]
13 | < 10 | < 10 | ≤ 10 | < 10 | ≤ 10 | COc1ccc(-c2cn(S(=O)(=O)c3cccc4cccnc34)c3ncccc23)cc1OC1CCCC1 [Compound 102, 8-[3-(3-Cyclopentyloxy-4-methoxy-phenyl)-pyrrolo[2,3-b]pyridine-1-sulfonyl]-quinoline]
14 | < 10 | < 10 | ≤ 10 | < 10 | ≤ 10 | COc1ccc(-c2cn(C(=O)c3ccc(N(C)C)c4ccccc34)c3ncccc23)cc1OC [Compound 109, [3-(3,4-Dimethoxy-phenyl)-pyrrolo[2,3-b]pyridin-1-yl]-(4-dimethylamino-naphthalen-1-yl)-methanone]
15 | < 10 | < 10 | ≤ 10 | < 10 | ≤ 10 | CCCOc1ccccc1C(=O)n1cc(-c2ccc(OC)c(OC)c2)c2cccnc21 [Compound 113, [3-(3,4-Dimethoxy-phenyl)-pyrrolo[2,3-b]pyridin-1-yl]-(2-propoxy-phenyl)-methanone]
16 | < 10 | < 10 | ≤ 10 | < 10 | ≤ 10 | COc1ccc(-c2cn(C(=O)c3ccnc4ccccc34)c3ncccc23)cc1OC [Compound 115, [3-(3,4-Dimethoxy-phenyl)-pyrrolo[2,3-b]pyridin-1-yl]-quinolin-4-yl-methanone]
17 | < 10 | < 10 | ≤ 10 | < 10 | ≤ 10 | COc1ccc(-c2cn(C(=O)c3cc(C)nc4ccccc34)c3ncccc23)cc1OC [Compound 116, [3-(3,4-Dimethoxy-phenyl)-pyrrolo[2,3-b]pyridin-1-yl]-(2-methyl-quinolin-4-yl)-methanone]
18 | < 10 | < 10 | ≤ 10 | < 10 | ≤ 10 | CCOc1cc(NS(C)(=O)=O)ccc1C(=O)n1cc(-c2ccc(OC)c(OC)c2)c2cccnc21 [Compound 145, N-{4-[3-(3,4-Dimethoxy-phenyl)-pyrrolo[2,3-b]pyridine-1-carbonyl]-3-ethoxy-phenyl}-methanesulfonamide]

Row | Structure (SMILES) | IC50 [1] [µM] | IC50 [2] [µM] | IC50 [3] [µM] | IC50 [4] [µM] | IC50 [5] [µM]
19 | CCOc1cc(N)ccc1C(=O)n1cc(-c2ccc(OC)c(OC)c2)c2cccnc21 [Compound 144, (4-Amino-2-ethoxy-phenyl)-[3-(3,4-dimethoxy-phenyl)-pyrrolo[2,3-b]pyridin-1-yl]-methanone] | < 10 | < 10 | ≤ 10 | < 10 | ≤ 10
